Results taken from patent publication US9168248B2, “Spiro compounds useful as inhibitors of stearoyl-coenzyme A delta-9 desaturase” (Merck Canada Inc., priority 2009, dated 2015).

Target: human SCD1 (Homo sapiens (Human), UniProt O00767)
Assay: SCD enzyme activity assay (conversion of radiolabeled stearoyl-CoA to oleoyl-CoA), human SCD1
Assay type: biochemical
Settings: human SCD1 from baculovirus/Sf9 expression system, reconstituted with cytochrome B5 and cytochrome B5 reductase; read-out: IC50 hSCD-1
Experimental: I. SCD Enzyme Activity Assay:
The potency of compounds of formula I against the stearoyl-CoA desaturase was determined by measuring the conversion of radiolabeled stearoyl-CoA to oleoyl-CoA using rat liver microsome or human SCD1 following previously published procedures with some modifications (Joshi, et al., J. Lipid Res., 18: 32-36 (1977); Talamo, et al., Anal. Biochem, 29: 300-304 (1969)). Liver microsome was prepared from male Wistar or Sprague Dawley rats on a high carbohydrate diet for 3 days (LabDiet #5803, Purina). The livers were homogenized (1:10 w/v) in a buffer containing 250 mM sucrose, 1 mM EDTA, 5 mM DTT and 50 mM Tris-HCl (pH 7.5). After a 100,000×g centrifugation for 60 min, the liver microsome pellet was suspended in a buffer containing 100 mM sodium phosphate, 20% glycerol, 2 mM DTT, and stored at −78° C. Human SCD1 desaturase system was reconstituted using human SCD1 from a baculovirus/Sf9 expression system, cytochrome B5 and cytochrome B5 reductase. Typically, test compound in 2 μL DMSO was incubated for […] at room temperature with 180 μL of the SCD enzyme in a buffer containing 100 mM Tris-HCl (pH 7.5), ATP (5 mM), Coenzyme-A (0.1 mM), Triton X-100 (0.5 mM) and NADH (2 mM). The reaction was initiated by the addition of 20 μL of [^3H]-stearoyl-CoA (final concentration=2 μM, radioactivity concentration=1 μCi/mL). After 10 mM, the reaction mixture (80 μL) was mixed with a calcium chloride/charcoal aqueous suspension (100 μL charcoal (10% w/v) plus 25 μL CaCl2 (2N). After centrifugation to precipitate the radioactive fatty acid species, tritiated water released from 9,10-[^3H]-stearoyl-CoA by the SCD enzyme was quantified on a scintillation counter.

human SCD1, sequence (O00767 whole entry): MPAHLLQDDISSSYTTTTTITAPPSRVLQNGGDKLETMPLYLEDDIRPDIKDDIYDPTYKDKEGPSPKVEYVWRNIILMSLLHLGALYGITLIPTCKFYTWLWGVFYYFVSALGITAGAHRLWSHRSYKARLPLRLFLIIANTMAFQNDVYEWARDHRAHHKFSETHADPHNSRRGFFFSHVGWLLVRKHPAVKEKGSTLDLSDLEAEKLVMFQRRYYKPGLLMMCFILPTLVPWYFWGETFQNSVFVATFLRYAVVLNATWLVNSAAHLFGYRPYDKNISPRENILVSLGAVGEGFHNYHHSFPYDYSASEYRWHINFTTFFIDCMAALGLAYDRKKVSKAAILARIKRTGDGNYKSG

Molecule | IC50
O=C(O)Cn1nnc(-c2nnc(N3CCC4(CCc5c(Cl)cccc5O4)CC3)s2)n1 [Example 1, {5-[5-(5-Chloro-3,4-dihydro-1′H-spiro[chromene-2,4′-piperidin]-1′-yl)-1,3,4-thiadiazol-2-yl]-2H-tetrazol-2-yl}acetic acid] | 12 nM
O=C(O)Cn1nnc(-c2cc(N3CCC4(CCc5c(Cl)cccc5O4)CC3)no2)n1 [Example 2, {5-[3-(5-Chloro-3,4-dihydro-1′H-spiro[chromene-2,4′-piperidin]-1′-yl)isoxazol-5-yl]-2H-tetrazol-2-yl}acetic acid] | 11 nM
O=C(O)Cn1nnc(-c2cnc(N3CCC4(CCc5c(Cl)cccc5O4)CC3)s2)n1 [Example 3, {5-[2-(5-Chloro-3,4-dihydro-1′H-spiro[chromene-2,4′-piperidin]-1′-yl)-1,3-thiazol-5-yl]-2H-tetrazol-2-yl}acetic acid] | 13 nM
O=C(O)Cn1nnc(-c2cnc(N3CCC4(CC3)CC(=O)c3ccccc3O4)s2)n1 [Example 4, {5-[2-(4-Oxo-3,4-dihydro-1′H-spiro[chromene-2,4′-piperidin]-1′-yl)-1,3-thiazol-5-yl]-2H-tetrazol-2-yl}acetic acid] | 41 nM
O=C(O)Cn1nnc(-c2cnc(N3CCC4(CCc5ccccc54)CC3)s2)n1 [Example 5, {5-[2-(2,3-Dihydro-1′H-spiro[indene-1,4′-piperidin]-1′-yl)-1,3-thiazol-5-yl]-2H-tetrazol-2-yl}acetic acid] | 49 nM
O=C(O)Cn1nnc(-c2cnc(N3CCC4(CC3)COc3ccccc34)s2)n1 [Example 6, {5-[2-(1′H-Spiro[1-benzofuran-3,4′-piperidin]-1′-yl)-1,3-thiazol-5-yl]-2H-tetrazol-2-yl}acetic acid] | 65 nM
O=C(O)Cn1nnc(-c2cnc(N3CCC4(C=Cc5ccccc54)CC3)s2)n1 [Example 7, {5-[2-(1′H-Spiro[indene-1,4′-piperidin]-1′-yl)-1,3-thiazol-5-yl]-2H-tetrazol-2-yl}acetic acid] | 244 nM
O=C(O)Cn1nnc(-c2nnc(N3CCC4(CC3)CC(=O)c3ccccc3O4)s2)n1 [Example 8, {5-[5-(4-Oxo-3,4-dihydro-1′H-spiro[chromene-2,4′-piperidin]-1′-yl)-1,3,4-thiadiazol-2-yl]-2H-tetrazol-2-yl}acetic acid] | 708 nM
O=C(O)Cn1nnc(-c2cnc(N3CCC4(CC3)NC(=O)c3ccccc3O4)s2)n1 [Example 9, {5-[2-(4-Oxo-3,4-dihydro-1′H-spiro[1,3-benzoxazine-2,4′-piperidin]-1′-yl)-1,3-thiazol-5-yl]-2H-tetrazol-2-yl}acetic acid] | 181 nM
O=C(O)Cn1nnc(-c2nnc(N3CCC4(CC3)Cc3ccccc3C(=O)O4)s2)n1 [Example 10, {5-[5-(1-Oxo-1,4-dihydro-1′H-spiro[isochromene-3,4′-piperidin]-1′-yl)-1,3,4-thiadiazol-2-yl]-2H-tetrazol-2-yl}acetic acid] | 338 nM
COc1cccc2c1CCC1(CCN(c3nnc(-c4nnn(CC(=O)O)n4)s3)CC1)O2 [Example 11, {5-[5-(5-Methoxy-3,4-dihydro-1′H-spiro[chromene-2,4′-piperidin]-1′-yl)-1,3,4-thiadiazol-2-yl]-2H-tetrazol-2-yl}acetic acid] | 13 nM
O=C(O)Cn1nnc(-c2nnc(N3CCC4(CCc5c(O)cccc5O4)CC3)s2)n1 [Example 12, {5-[5-(5-Hydroxy-3,4-dihydro-1′H-spiro[chromene-2,4′-piperidin]-1′-yl)-1,3,4-thiadiazol-2-yl]-2H-tetrazol-2-yl}acetic acid] | 366 nM
O=C(O)Cn1nnc(-c2cc(N3CCC4(CCc5c(OC(F)(F)F)cccc5O4)CC3)no2)n1 [Example 16, (5-{3-[5-(Trifluoromethoxy)-3,4-dihydro-1H-spiro[chromene-2,4′-piperidin]-1′-yl]isoxazol-5-yl}-2H-tetrazol-2-yl)acetic acid] | 1 nM
O=C(O)Cn1nnc(-c2nnc(N3CCC4(CCc5c(OC(F)(F)F)cccc5O4)CC3)s2)n1 [Example 17, (5-{5-[5-(Trifluoromethoxy)-3,4-dihydro-1′H-spiro[chromene-2,4′-piperidin]-1′-yl]-1,3,4-thiadiazol-2-yl}-2H-tetrazol-2-yl)acetic acid] | 1 nM
O=C(O)Cn1nnc(-c2cnc(N3CCC4(CCc5c(OC(F)(F)F)cccc5O4)CC3)s2)n1 [Example 18, (5-{2-[5-(Trifluoromethoxy)-3,4-dihydro-1′H-spiro[chromene-2,4′-piperidin]-1′-yl]-1,3-thiazol-5-yl}-2H-tetrazol-2-yl)acetic acid] | 1 nM
{4-[5-(5-Chloro-3,4-dihydro-1′H-spiro[chromene-2,4′-piperidin]-1′-yl)-1,3,4-thiadiazol-2-yl]-1H-1,2,3-triazol-1-yl}acetic acid [Example 72] | 3 nM

More lines, now with the values ahead:

IC50 | Molecule
1 nM | O=C(O)Cn1nnc(-c2cc(N3CCC4(CCc5c(Br)cccc5O4)CC3)no2)n1 [Example 22, {5-[3-(5-Bromo-3,4-dihydro-1′H-spiro[chromene-2,4′-piperidin]-1′-yl)isoxazol-5-yl]-2H-tetrazol-2-yl}acetic acid]
1 nM | O=C(O)Cn1nnc(-c2cnc(N3CCC4(CCc5c(Br)cccc5O4)CC3)s2)n1 [Example 28, {5-[2-(5-Bromo-3,4-dihydro-1′H-spiro[chromene-2,4′-piperidin]-1′-yl)-1,3-thiazol-5-yl]-2H-tetrazol-2-yl}acetic acid]
1 nM | Cc1cccc2c1CCC1(CCN(c3ncc(-c4nnn(CC(=O)O)n4)s3)CC1)O2 [Example 42, {5-[2-(5-Methyl-3,4-dihydro-1′H-spiro[chromene-2,4′-piperidin]-1′-yl)-1,3-thiazol-5-yl]-2H-tetrazol-2-yl}acetic acid]
21 nM | O=C(O)Cn1nnc(-c2cnc(N3CCC4(CC3)Cc3cccc(Cl)c3C(=O)O4)s2)n1 [Example 46, {5-[2-(8-Chloro-1-oxo-1,4-dihydro-1′H-spiro[isochromene-3,4′-piperidin]-1′-yl)-1,3-thiazol-5-yl]-2H-tetrazol-2-yl}acetic acid]
62 nM | O=C(O)Cn1nnc(-c2cnc(N3CCC4(CC3)NC(=O)c3c(Cl)cccc3O4)s2)n1 [Example 54]
3 nM | O=C(O)Cn1ccn(-c2cnc(N3CCC4(CCc5c(Cl)cccc5O4)CC3)s2)c1=O [Example 68, {3-[2-(5-Chloro-3,4-dihydro-1′H-spiro[chromene-2,4′-piperidin]-1′-yl)-1,3-thiazol-5-yl]-2-oxo-2,3-dihydro-1H-imidazol-1-yl}acetic acid]
1 nM | O=C(O)Cn1nnc(-c2nnc(N3CCC4(CCc5c(cccc5C(F)(F)F)O4)CC3)s2)n1 [Example 75, (5-{5-[5-(Trifluoromethyl)-3,4-dihydro-1′H-spiro[chromene-2,4′-piperidin]-1′-yl]-1,3,4-thiadiazol-2-yl}-2H-tetrazol-2-yl)acetic acid]
1 nM | O=C(O)Cn1nnc(-c2cnc(N3CCC4(CCc5c(cccc5C(F)(F)F)O4)CC3)s2)n1 [Example 76, (5-{2-[5-(Trifluoromethyl)-3,4-dihydro-1′H-spiro[chromene-2,4′-piperidin]-1′-yl]-1,3-thiazol-5-yl}-2H-tetrazol-2-yl)acetic acid]
